From publication PMC12518634, “The noncanonical function of liver-type phosphofructokinase potentiates the efficacy of HDAC inhibitors in cancer” (Signal Transduction and Targeted Therapy, 2025)
Where a name gives a salt, the structure may show the parent alone. Read-outs that look alike come from different tables or passages of the source.

Tests used:
[1] = system: 1405R3; experiment: High-throughput drug screen, CellTiter-Glo viability, 72 h; assay type: cell-based, human; set-up: AUC: scale not given here; conditions: 1405R3 DSRT analysis; for AUC: area under the dose-response curve; for DSS: drug sensitivity score; for MIN: lower asymptote of fitted dose-response curve; for EC50: CellTiter-Glo viability, 72 h, fitted dose-response curve, Min.Conc.tested 1, Max.Conc.tested 10000, GI50, read-out: EC50; for SLOPE: slope of fitted dose-response curve
How it was run: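 Responses are drug sensitivity scores (efficacy cutoff ≥10), fitted from CellTiter-Glo luminescence. Each drug was given at five concentrations (10 to 0.001 μM, tenfold steps) in duplicate for 72 h. Cells were plated at 3000/well 24 h before dosing.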

[2] = system: 783C-6; experiment: as above; assay type: cell-based, human; set-up: AUC: scale not given here; conditions: for DSS: DSS of DSRT analysis; for AUC: area under the dose-response curve; for MIN: minimum of dose-response curve; for EC50: 72 h, read-out: EC50; for SLOPE: slope of fitted dose-response curve
How it was run: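 Cholangiocarcinoma cells were seeded at 3000/well in 384-well plates and dosed after 24 h. Drugs were tested at 10, 1, 0.1, 0.01 and 0.001 μM in duplicate for 72 h, with viability read by CellTiter-Glo luminescence.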

[3] = 783C-6 cells, DSRT analysis, CellTiter-Glo viability, concentrations tested 1 to 10000 (unit inferred), GI50

SMILES | AUC [1] | DSS [1] | MIN [1] | EC50 ([1]; Homo sapiens) | DSS ([2]; 783C-6 cells) | AUC ([2]; 783C-6 cells) | MIN ([2]; 783C-6 cells) | EC50 ([2]; Homo sapiens) | SLOPE [1] | SLOPE ([2]; 783C-6 cells) | EC50 [1] | EC50 [2, 3]
CCCCc1nc2cc(/C=C/C(=O)NO)ccc2n1CCN(CC)CC [Pracinostat] | 75.5 | 8.7 | 3.4 | 1660 nM | 7.3 | 64.3 | 3.1 | 2190 nM |  |  |  | 
Cn1cc(CNCC2CCN(c3ncc(C(=O)NO)cn3)CC2)c2ccccc21 [Quisinostat] | 180.7 | 21.1 | 0.1 | 156 nM | 26.9 | 227.2 | 1.2 | 50 nM |  |  |  | 
O=C(O)C(Cc1c[nH]c2ccccc12)N1C(=O)c2ccccc2C1=O (stereo not shown) [RG108] | 0.1 | 0 | 99.8 |  | 0 | 9.4 | 94 |  | -1.1 | -0.1 |  | 
Nc1cc(F)ccc1NC(=O)/C=C/c1cnn(C/C=C/c2ccccc2)c1 [RGFP966] | 0.2 | 0 | 98.3 |  | 0 | 7 | 93.9 |  |  |  |  | 
C[C@@H]1O[C@@H](O[C@H]2[C@H](O[C@H]3[C@H](O[C@H]4CC[C@]5(C)[C@H]6CC=C7[C@@H]8CC(C)(C)CC[C@]8(C(=O)O)CC[C@@]7(C)[C@]6(C)CC[C@H]5C4(C)C)OC[C@H](O)[C@@H]3O)O[C@H](CO)[C@@H](O)[C@@H]2O)[C@H](O)[C@H](O)[C@H]1O [Raddeanin A] | 56.1 | 6.3 | 1.8 |  | 5.9 | 52.9 | 3.4 |  | -2.5 | -2.5 | 2720 nM | 2880 nM
CN(C)Cc1ccc(S(=O)(=O)n2ccc(/C=C/C(=O)NO)c2)cc1 [Resminostat] | 45 | 5 | 20.3 | 2770 nM | 4.3 | 39.6 | 25.4 | 3000 nM |  |  |  | 
O=C(CCCCCCNC(=O)c1cnc(N(c2ccccc2)c2ccccc2)nc1)NO [Ricolinostat] | 20.6 | 1.9 | 71.1 | 1950 nM | 2.2 | 22.4 | 66.7 | 2140 nM |  |  |  | 
CC(C)N(CCCNC(=O)Nc1ccc(C(C)(C)C)cc1)C[C@H]1O[C@@H](n2cc(Br)c3c(N)ncnc32)[C@H](O)[C@@H]1O [SGC 0946] | 6.1 | 0 | 93.6 |  | 0 | 19.5 | 94.1 |  |  |  |  | 
COc1ccc(CCc2nc3cc(-c4c(C)noc4C)ccc3n2C[C@H](C)N2CCOCC2)cc1Cl [SGC-CBP30] | 28.3 | 0 | 84.6 |  | 0 | 4.1 | 86.4 |  |  |  |  | 
Cc1cc(Nc2ccc(NC(=O)c3ccc(Nc4ccnc5ccccc45)cc3)cc2)nc(N)n1 [SGI-1027] | 19.4 | 0 | 87.3 |  | 0 | 2.3 | 92.3 |  | -0.4 | -1 |  | 
CN1CCC(CNc2ccc3ncc(-c4cccc(OC(F)(F)F)c4)n3n2)CC1 [SGI-1776 free base] | 51.4 | 5.7 | 1.9 |  | 4.9 | 44.9 | 10.3 |  | -2.5 | -2.5 | 3060 nM | 3230 nM
CCCCCCCCCCCCCCCCNNC(=O)c1cccs1 [SIS17] | 24.4 | 0 | 84.3 |  | 0 | 4.7 | 84.4 |  | -0.1 | -1 |  | 
COc1ccc(N(C)c2nc(C)nc3ccccc23)cc1OCCCC(=O)NO [SKLB-23bb] | 79.5 | 8.2 | 33.2 |  | 13.8 | 111 | 50 |  | -0.8 | -2.5 | 731 nM | 60.2 nM
O=C1NC(=O)/C(=C/c2cccc(C(F)(F)F)c2)S1 [SMI-4a] | 0.1 | 0 | 99.6 |  | 0 | 2.1 | 96.8 |  | -1.3 | -2.5 |  | 
CCCOc1ccc(/C=C2\SC(=O)NC2=O)cc1 [SMI-16a] | 0.1 | 0 | 100 |  | 0 | 5.7 | 91.3 |  | -0.1 | -0.5 |  | 
C/C(=N\NC(=O)c1cccc(S(=O)(=O)N2CCOCC2)c1)c1cc(Cl)ccc1O [SP2509] | 31.9 | 3.1 | 61 |  | 4.9 | 43.2 | 35 |  | -1.6 | -2.5 | 1570 nM | 2180 nM

SMILES | AUC [1] | DSS [1] | MIN [1] | EC50 ([1]; Homo sapiens) | DSS ([2]; 783C-6 cells) | AUC ([2]; 783C-6 cells) | MIN ([2]; 783C-6 cells) | EC50 ([2]; Homo sapiens) | SLOPE [1] | SLOPE ([2]; 783C-6 cells) | EC50 [1] | EC50 [2, 3]
CCCCNNC(=O)c1ccc(-c2cccc(F)c2F)cc1 [SR-4370] | 63.7 | 7.2 | 6.9 |  | 6.1 | 54.2 | 7.5 |  | -2.5 | -2.5 | 2080 nM | 2630 nM
CCOC(=O)NCCCC(=O)NCCc1ccccc1 [Santacruzamate A] | 1 | 0 | 92 |  | 0 | 2.2 | 94.7 |  | -2.5 | -0.7 |  | 
O=C(CCCCCN1C(=O)c2cccc3cccc(c23)C1=O)NO [Scriptaid] | 77.8 | 9 | 11.5 | 1330 nM | 8.6 | 74.4 | 3.2 | 1710 nM |  |  |  | 
NC(=O)C1CCCc2c1[nH]c1ccc(Cl)cc21 (stereo not shown) [Selisistat] | 1 | 0 | 97.8 |  | 0 | 11.9 | 93.6 |  | -0.6 | -0.1 |  | 
O=C(O)CCCc1ccccc1 [Sodium Phenylbutyrate] | 9.3 | 0 | 90.9 |  | 0 | 15 | 91.2 |  |  |  |  | 
CCCC(=O)[O-].[Na+] [Sodium butyrate] | 0.1 | 0 | 100 |  | 0 | 0.1 | 100 |  | -0.1 | -0.1 |  | 
CNC(=O)c1cc(Oc2ccc(NC(=O)Nc3ccc(Cl)c(C(F)(F)F)c3)cc2)ccn1 [Sorafenib Tosylate] | 36.2 | 3.8 | 14 | 3940 nM | 3.4 | 31.4 |  | 2190 nM |  |  |  | 
O=C1CCc2c(ccc3ccccc23)O1 [Splitomicin] | 3.1 | 0 | 95.1 |  | 0 | 7.8 | 95 |  |  |  |  | 
O=C(CCCCCCC(=O)NO)NO [Suberohydroxamic acid] | 0.5 | 0 | 98 |  | 0 | 1.4 | 95.2 |  |  |  |  | 
Cl.Cn1cc(C(=O)Nc2ccc([C@@H]3C[C@H]3NCC3CC3)cc2)cn1 [T-3775440 HCl] | 0.3 | 0 | 97.3 |  | 0 | 15 | 90.4 |  | -2.5 | -0.1 |  | 
C=CC(=O)N1CC[C@H](n2nc(C#Cc3cc(OC)cc(OC)c3)c3c(N)ncnc32)C1 [TAS-120] | 7.2 | 0 | 91.3 |  | 0 | 1.7 | 94.4 |  |  |  |  | 
N#Cc1c(-c2ccccc2)cc(-c2cc(Br)ccc2O)[nH]c1=O [TCS PIM-1 1] | 2.3 | 0 | 96.8 |  | 0 | 5.4 | 92.2 |  | -0.4 | -0.4 |  | 
CC(C)(CNC(=O)c1cccc(-c2noc(C(F)(F)F)n2)c1)c1coc(-c2ccccc2)n1 [TMP195] | 1.1 | 0 | 97.2 |  | 0 | 1.4 | 96 |  | -0.8 | -0.9 |  | 
O=C(NCC1(c2nc(-c3ccccc3)cs2)CCOCC1)c1cccc(-c2noc(C(F)(F)F)n2)c1 [TMP269] | 24.8 | 0 | 87 |  | 2.5 | 50.1 | 84.2 |  | -0.2 | -0.3 |  | 
CC(=O)Nc1ccc(C(=O)Nc2ccccc2N)cc1 [Tacedinaline] | 9.7 | 0.6 | 76.8 |  | 0.3 | 7.5 | 82.2 |  |  |  |  | 
